From US8227428B2, “Anti-infammatory macrolide” (Glaxo Group Limited, priority 2009, dated 2012)

Experiment: Stability in buffer solutions pH 2 to pH 8 at 25° C.
Format: physicochemical
Experimental: Stability in buffer solutions pH 2 to pH 8 at 25° C., and in bio-relevant media (SGF pH 1.6, Fasted SIF pH 6.5 and Fed SIF pH 5.0) at 37° C., during 24 hours is monitored. The samples are analysed by LC/MS.
Buffer Solutions and Physiologically Relevant Media Used in Stability Assay:
LC Conditions: Instrument HP1100
Column: Waters XBridge C18, 2.1×50 mm, 3.5 μm
Guard column: Waters XBridge C18, 2.1×10 mm, 3.5 μm
• A) 0.1% HCOOH/H2O • B) 0.1% HCOOH/CH3CN Gradient Timetable: […]
Flow: 0.3 mL/min Column temp.: 25° C. Sample temp.: 25° C. (for stability assay in buffer solutions) • 37° C. (for stability assay in bio-relevant media) Injector volume: 3 μL (without injection program) MS Conditions: Instrument HP MS API-ES, positive ion mode Mass Range: 150-1500 Fragmentor: 100 Gain: 1.0 Treshold: 150 Step size: 0.20 Gas Temperature: 350° C. Drying Gas Flow: 13 L/min Nebulizer Pressure: 35 psig Capillary Voltage Positive 4000 V • Negative 4000 V Sample Preparation: a) For Stability Assay in Buffer Solutions
Compounds are dissolved in CH3CN to produce a 1 mg/mL stock solution. The stock solution is diluted to a concentration of 0.2 mg/mL (1 mL solution in 4 mL buffer) with appropriate buffer to produce a working solution.
Each solution at each pH is then dispatched into vials that are sealed and stored at room temperature in order to be analyzed at the proper time point. Before analysis, pH values of prepared sample solutions are checked and adjusted if neccessary.

CC[C@H]1OC(=O)[C@H](C)[C@@H](O[C@H]2C[C@@](C)(OC)[C@@H](OC(=O)CCN(CC)CC)[C@H](C)O2)[C@H](C)[C@@H](O[C@@H]2O[C@H](C)C[C@H](NC)[C@H]2O)[C@](C)(OC)C[C@@H](C)C(=O)N[C@H](C)[C@@H](O)[C@]1(C)O [Example 2, 3′-N-Demethyl-4″-O-(3-diethylaminopropionoyl)-6-O-methyl-9a-aza-9a-homoerythromycin A]
stability in buffers at pH 7 and at pH 8 (25° C., during 24 hours): showed instability
Percentage (Area %) of the compound observed in buffers (pH 2, 25° C., 2 h): 100 Area %
Percentage (Area %) of the compound observed in buffers (pH 2, 25° C., 4 h): 100 Area %
Percentage (Area %) of the compound observed in buffers (pH 2, 25° C., 6 h): 98.7 Area %
Percentage (Area %) of the compound observed in buffers (pH 2, 25° C., 8 h): 98.5 Area %
Percentage (Area %) of the compound observed in buffers (pH 2, 25° C., 12 h): 97.6 Area %
Percentage (Area %) of the compound observed in buffers (pH 2, 25° C., 14 h): 97.6 Area %
Percentage (Area %) of the compound observed in buffers (pH 2, 25° C., 18 h): 97.5 Area %
Percentage (Area %) of the compound observed in buffers (pH 2, 25° C., 20 h): 97.3 Area %
Percentage (Area %) of the compound observed in buffers (pH 2, 25° C., 22 h): 97.2 Area %
Percentage (Area %) of the compound observed in buffers (pH 2, 25° C., 24 h): 97.2 Area %
Percentage (Area %) of the compound observed in buffers (pH 2, 25° C., Initial): 100 Area %
Percentage (Area %) of the compound observed in buffers (pH 3, 25° C., 2 h): 100 Area %
Percentage (Area %) of the compound observed in buffers (pH 3, 25° C., 4 h): 100 Area %
Percentage (Area %) of the compound observed in buffers (pH 3, 25° C., 6 h): 98.8 Area %
Percentage (Area %) of the compound observed in buffers (pH 3, 25° C., 8 h): 97.5 Area %
Percentage (Area %) of the compound observed in buffers (pH 3, 25° C., 12 h): 97.3 Area %
Percentage (Area %) of the compound observed in buffers (pH 3, 25° C., 14 h): 97.3 Area %
Percentage (Area %) of the compound observed in buffers (pH 3, 25° C., 18 h): 97.0 Area %
Percentage (Area %) of the compound observed in buffers (pH 3, 25° C., 20 h): 97.0 Area %
Percentage (Area %) of the compound observed in buffers (pH 3, 25° C., 22 h): 97.0 Area %
Percentage (Area %) of the compound observed in buffers (pH 3, 25° C., 24 h): 96.9 Area %
Percentage (Area %) of the compound observed in buffers (pH 3, 25° C., Initial): 100 Area %
Percentage (Area %) of the compound observed in buffers (pH 4, 25° C., 2 h): 100 Area %
Percentage (Area %) of the compound observed in buffers (pH 4, 25° C., 4 h): 100 Area %
Percentage (Area %) of the compound observed in buffers (pH 4, 25° C., 6 h): 100 Area %
Percentage (Area %) of the compound observed in buffers (pH 4, 25° C., 8 h): 99.3 Area %
Percentage (Area %) of the compound observed in buffers (pH 4, 25° C., 12 h): 99.0 Area %
Percentage (Area %) of the compound observed in buffers (pH 4, 25° C., 14 h): 98.5 Area %
Percentage (Area %) of the compound observed in buffers (pH 4, 25° C., 18 h): 98.5 Area %
Percentage (Area %) of the compound observed in buffers (pH 4, 25° C., 20 h): 98.4 Area %
Percentage (Area %) of the compound observed in buffers (pH 4, 25° C., 22 h): 98.4 Area %
Percentage (Area %) of the compound observed in buffers (pH 4, 25° C., 24 h): 98.3 Area %
Percentage (Area %) of the compound observed in buffers (pH 4, 25° C., Initial): 100 Area %
Percentage (Area %) of the compound observed in buffers (pH 5, 25° C., 2 h): 98.5 Area %
Percentage (Area %) of the compound observed in buffers (pH 5, 25° C., 4 h): 98.5 Area %
Percentage (Area %) of the compound observed in buffers (pH 5, 25° C., 6 h): 98.4 Area %
Percentage (Area %) of the compound observed in buffers (pH 5, 25° C., 8 h): 98.4 Area %
Percentage (Area %) of the compound observed in buffers (pH 5, 25° C., 12 h): 98.4 Area %
Percentage (Area %) of the compound observed in buffers (pH 5, 25° C., 14 h): 98.3 Area %
Percentage (Area %) of the compound observed in buffers (pH 5, 25° C., 18 h): 98.3 Area %
Percentage (Area %) of the compound observed in buffers (pH 5, 25° C., 20 h): 98.3 Area %
Percentage (Area %) of the compound observed in buffers (pH 5, 25° C., 22 h): 98.3 Area %
Percentage (Area %) of the compound observed in buffers (pH 5, 25° C., 24 h): 98.0 Area %
Percentage (Area %) of the compound observed in buffers (pH 5, 25° C., Initial): 100 Area %
Percentage (Area %) of the compound observed in buffers (pH 6, 25° C., 2 h): 99.6 Area %
Percentage (Area %) of the compound observed in buffers (pH 6, 25° C., 4 h): 99.4 Area %
Percentage (Area %) of the compound observed in buffers (pH 6, 25° C., 6 h): 99.0 Area %
Percentage (Area %) of the compound observed in buffers (pH 6, 25° C., 8 h): 99.0 Area %
Percentage (Area %) of the compound observed in buffers (pH 6, 25° C., 12 h): 99.0 Area %
Percentage (Area %) of the compound observed in buffers (pH 6, 25° C., 14 h): 98.5 Area %
Percentage (Area %) of the compound observed in buffers (pH 6, 25° C., 18 h): 98.3 Area %
